Patent publication US11466034B2, “Compound functioning as bromodomain protein inhibitor, and composition” (Betta Pharmaceuticals Co., Ltd., priority 2017, dated 2022)

Columns and labels:
[1] = molecular target: BRD4(D1) (Homo sapiens (Human), UniProt O60885); test: Inhibitory activity against BRD4(D1), HTRF assay; format: binding
Method: (§1) (+)-JQ1 was used as comparison compound, to evaluated the inhibitory activity of compounds of the invention against BRD4(D1) and BRD4(D2) in vitro.
(§2) The assays of BRD4 (D1) and BRD4 (D2) were conducted in a 384-well polystyrene plate. The test compounds were first serially diluted in DMSO and the test compound/DMSO were transferred to 384-well plates. The final concentration of DMSO in the assay was 0.1%. 2 volumes of protein/peptide mixture were added into 384-well plates, then 2 volumes of assay mixture were added, and shake for 30 s. The plate was incubated at room temperature for 2 h. Then the HTRF signal on EnVision was readed.
(§3) Use equation (1) to fit the date in Excel to obtain the value of the inhibition rate. Inhibition rate (%)=(maximum value−signal value)/(maximum value−minimum value)*100 Equation(1):
(§4) IC50 determination was performed by fitting the data using GraphPad Prism 5.0 software and equation (2). Y=bottom+(Top−bottom)/(1+10^((Log IC50−X)*HillSlope)); Equation(2): wherein, Y represents the percentage of inhibition (%); X represents the concentration of test compounds.
(§5) The IC50 data of the examples were provided in the following table, wherein, A stands for IC50<100 nM; B stands for IC50 is 100-300 nM; C stands for IC50>300 nM.

[2] = molecular target: BRD4(D2) (Homo sapiens (Human), UniProt O60885); test: Inhibitory activity against BRD4(D2), HTRF assay; format: binding
Method: as §1, §2, §3, §4, §5

Row | Molecule | IC50 ([1]; class symbols) [nM] | IC50 ([2]; class symbols) [nM] | IC50 ([1]; numeric values) [nM] | IC50 ([2]; numeric values) [nM]
1 | COc1ccc(Cn2c(C)nc3ncc(-c4cn(Cc5ccccc5)c(=O)c5[nH]ccc45)cc32)cc1 [Example 10, 6-benzyl-4-(1-(4-methoxybenzyl)-2-methyl-1H-imidazo[4,5-b]pyridin-6-yl)-1,6-dihydro-7H-pyrrolo[2,3-c]pyridin-7-one] | > 300 | > 300 |  | 
2 | Cn1cc(-c2cnc3[nH]c(=O)n(Cc4ccc(Cl)cc4)c3c2)c2cc[nH]c2c1=O [Example 34, 1-(4-chlorobenzyl)-6-(6-methyl-7-oxo-6,7-dihydro-1H-pyrrolo[2,3-c]pyridin-4-yl)-1,3-dihydro-2H-imidazo[4,5-b]pyridin-2-one] |  |  | 107 | 31
3 | CSc1ccc(Cn2c(C)nc3ncc(-c4cn(C)c(=O)c5[nH]ccc45)cc32)cc1 [Example 3, 6-methyl-4-(2-methyl-1-(4-(methylthio)benzyl)-1H-imidazo[4,5-b]pyridin-6-yl)-1H-pyrrolo[2,3-c]pyridin-7(6H)-one] |  |  | 12.7 | 3.2
4 | Cn1cc(-c2ccc3ccn(S(=O)(=O)c4ccc(Cl)cc4)c3n2)c2cc[nH]c2c1=O [Example 40, 4-(1-((4-chlorophenyl)sulfonyl)-1H-pyrrolo[2,3-b]pyridin-6-yl)-6-methyl-1,6-dihydro-7H-pyrrolo[2,3-c]pyridin-7-one] |  |  | 10.5 | 2.5
5 | COc1ccc(Cn2c(C)nc3ncc(-c4cn(C)c(=O)c5[nH]ccc45)cc32)cc1 [Example 2, 4-(1-(4-methoxybenzyl)-2-methyl-1H-imidazo[4,5-b]pyridin-6-yl)-6-methyl-1H-pyrrolo[2,3-c]pyridin-7(6H)-one] |  |  | 10.4 | 3
6 | Cc1nc2ncc(-c3cn(C)c(=O)c4[nH]ccc34)nc2n1C(C)c1ccc(Cl)cc1 (centres unmarked) [Example 21, 4-(1-(1-(4-chlorophenyl)ethyl)-2-methyl-1H-imidazo[4,5-b]pyrazin-6-yl)-6-methyl-1,6-dihydro-7H-pyrrolo[2,3-c]pyridin-7-one] |  |  | 6.1 | 1.8
7 | Cc1cc2ncc(-c3cn(C)c(=O)c4[nH]ccc34)cc2n1Cc1c(Cl)cccc1Cl [Example 38, 4-(1-(2,6-dichlorobenzyl)-2-methyl-1H-pyrrolo[3,2-b]pyridin-6-yl)-6-methyl-1,6-dihydro-7H-pyrrolo[2,3-c]pyridin-7-one] |  |  | 7.3 | 2.2
8 | COc1ccc(Cn2c(C)nc3ncc(-c4c[nH]c(=O)c5[nH]c(C)cc45)cc32)cc1 [Example 13, 4-(1-(4-methoxybenzyl)-2-methyl-1H-imidazo[4,5-b]pyridin-6-yl)-2-methyl-1,6-dihydro-7H-pyrrolo[2,3-c]pyridin-7-one] | 100 to 300 | 100 to 300 |  | 
9 | CCS(=O)(=O)Nc1cc(-c2cn(C)c(=O)c3[nH]ccc23)nc2c1ncn2C(C)c1ccc(Cl)cc1 (centres unmarked) [Example 60, N-(3-(1-(4-chlorophenyl)ethyl)-5-(6-methyl-7-oxo-6,7-dihydro-1H-pyrrolo[2,3-c]pyridin-4-yl)-3H-imidazo[4,5-b]pyridin-7-yl)ethanesulfonamide] | 100 to 300 | 100 to 300 |  | 
10 | COc1ccc(Cn2c(C)nc3ncc(-c4cn(Cc5nccs5)c(=O)c5[nH]ccc45)cc32)cc1 [Example 14, 4-(1-(4-methoxybenzyl)-2-methyl-1H-imidazo[4,5-b]pyridin-6-yl)-6-(thiazol-2-ylmethyl)-1,6-dihydro-7H-pyrrolo[2,3-c]pyridin-7-one] | 100 to 300 | > 300 |  | 
11 | CCn1cc(-c2cnc3nc(C)n(Cc4ccc(OC)cc4)c3c2)c2cc[nH]c2c1=O [Example 12, 6-ethyl-4-(1-(4-methoxybenzyl)-2-methyl-1H-imidazo[4,5-b]pyridin-6-yl)-1,6-dihydro-7H-pyrrolo[2,3-c]pyridin-7-one] | 100 to 300 | 100 to 300 |  | 
12 | Cc1nc2ncc(-c3cn(Cc4cccnc4)c(=O)c4[nH]ccc34)cc2n1Cc1ccc(Cl)cc1 [Example 17, 4-(1-(4-chlorobenzyl)-2-methyl-1H-imidazo[4,5-b]pyridin-6-yl)-6-(pyridin-3-ylmethyl)-1,6-dihydro-7H-pyrrolo[2,3-c]pyridin-7-one] | > 300 | > 300 |  | 
13 | (+)-JQ1 [reference compound] |  |  | 16 | 

Continued, values first:

Row | IC50 ([1]; class symbols) [nM] | IC50 ([2]; class symbols) [nM] | IC50 ([1]; numeric values) [nM] | IC50 ([2]; numeric values) [nM] | Molecule
14 | < 100 | < 100 |  |  | CCS(=O)(=O)Nc1cc(-c2cn(C)c(=O)c3[nH]ccc23)nc2c1ncn2Cc1ccccc1C(F)(F)F [Example 63, N-(5-(6-methyl-7-oxo-6,7-dihydro-H-pyrrolo[2,3-c]pyridin-4-yl)-3-(2-(trifluoromethyl)benzyl)-3H-imidazo[4,5-b]pyridin-7-yl)ethanesulfonamide]
15 | < 100 | < 100 |  |  | CCS(=O)(=O)Nc1cc(-c2cn(C)c(=O)c3[nH]ccc23)nc2c1nc(C)n2Cc1c(C)cccc1C [Example 68, N-(3-(2,6-dimethylbenzyl)-2-methyl-5-(6-methyl-7-oxo-6,7-dihydro-1H-pyrrolo[2,3-c]pyridin-4-yl)-3H-imidazo[4,5-b]pyridin-7-yl)ethanesulfonamide]
16 | < 100 | < 100 |  |  | CCS(=O)(=O)Nc1cc(-c2cn(C)c(=O)c3[nH]ccc23)cc2c1nc(C)n2Cc1ccc(Br)cc1 [Example 55, N-(2-methyl-6-(6-methyl-7-oxo-6,7-dihydro-1H-pyrrolo[2,3-c]pyridin-4-yl)-1-(4-bromobenzyl)-1H-benzo[d]imidazol-4-yl)ethanesulfonamide]
17 | < 100 | < 100 |  |  | CCS(=O)(=O)Nc1cc(-c2cn(C)c(=O)c3[nH]ccc23)cc2c1nc(C)n2Cc1ccc(C(F)(F)F)cc1 [Example 42, N-(2-methyl-6-(6-methyl-7-oxo-6,7-dihydro-1H-pyrrolo[2,3-c]pyridin-4-yl)-1-(4-(trifluoromethyl)benzyl)-1H-benzo[d]imidazol-4-yl)ethanesulfonamide]
18 | < 100 | < 100 |  |  | CCS(=O)(=O)Nc1cc(-c2cn(C)c(=O)c3[nH]ccc23)cc2c1nc(C)n2Cc1ccc(OC)cc1 [Example 43, N-(1-(4-methoxybenzyl)-2-methyl-6-(6-methyl-7-oxo-6,7-dihydro-H-pyrrolo[2,3-c]pyridin-4-yl)-1H-benzo[d]imidazol-4-yl)ethanesulfonamide]
19 | < 100 | < 100 |  |  | CCS(=O)(=O)Nc1cc(-c2cn(C)c(=O)c3[nH]ccc23)cc2c1nc(C)n2Cc1ccc(S(C)(=O)=O)cc1 [Example 56, N-(2-methyl-6-(6-methyl-7-oxo-6,7-dihydro-1H-pyrrolo[2,3-c]pyridin-4-yl)-1-(4-(methylsulfonyl)benzyl)-1H-benzo[d]imidazol-4-yl)ethanesulfonamide]
20 | < 100 | < 100 |  |  | Cc1nc2ncc(-c3cn(C)c(=O)c4[nH]ccc34)nc2n1Cc1ccccc1 [Example 22, 4-(1-benzyl-2-methyl-1H-imidazo[4,5-b]pyrazin-6-yl)-6-methyl-1H-pyrrolo[2,3-c]pyrid in-7(6H)-one]
21 | < 100 | < 100 |  |  | Cc1nc2ncc(-c3cn(C)c(=O)c4[nH]ccc34)nc2n1Cc1ccc(C(F)(F)F)c(F)c1 [Example 28, 4-(1-(3-fluoro-4-trifluoromethylbenzyl)-2-methyl-1H-imidazo[4,5-b]pyrazin-6-yl)-6-methyl-1H-pyrrolo[2,3-c]pyridin-7(6H)-one]
22 | < 100 | < 100 |  |  | CCS(=O)(=O)Nc1cc(-c2cn(C)c(=O)c3[nH]ccc23)cc2c1nc(C)n2Cc1cccc(Cl)c1 [Example 53, N-(2-methyl-6-(6-methyl-7-oxo-6,7-dihydro-1H-pyrrolo[2,3-c]pyridin-4-yl)-1-(3-chlorobenzyl)-1H-benzo[d]imidazol-4-yl)ethanesulfonamide]
23 | < 100 | < 100 |  |  | Cc1nc2ncc(-c3cn(C)c(=O)c4[nH]ccc34)nc2n1Cc1cccc(Cl)c1 [Example 30, 4-(1-(3-chlorobenzyl)-2-methyl-1H-imidazo[4,5-b]pyrazin-6-yl)-6-methyl-1H-pyrrolo[2,3-c]pyridin-7(6H)-one]
24 | < 100 | < 100 |  |  | CCS(=O)(=O)Nc1cc(-c2cn(C)c(=O)c3[nH]ccc23)nc2c1nc(C)n2Cc1ccccc1C(F)(F)F [Example 66, N-(2-methyl-5-(6-methyl-7-oxo-6,7-dihydro-1H-pyrrolo[2,3-c]pyridin-4-yl)-3-(2-(trifluoromethyl)benzyl)-3H-imidazo[4,5-b]pyridin-7-yl)ethanesulfonamide]
25 | < 100 | < 100 |  |  | Cc1nc2ncc(-c3cn(C)c(=O)c4[nH]ccc34)nc2n1Cc1ccc(F)cc1F [Example 31, 4-(1-(2,4-difluorobenzyl)-2-methyl-1H-imidazo[4,5-b]pyrazin-6-yl)-6-methyl-1H-pyrrolo[2,3-c]pyridin-7(6H)-one]
26 | < 100 | < 100 |  |  | CCS(=O)(=O)Nc1cc(-c2cn(C)c(=O)c3[nH]ccc23)cc2c1nc(C)n2Cc1ccc(F)cc1Cl [Example 57, N-(1-(2-chloro-4-fluorobenzyl)-2-methyl-6-(6-methyl-7-oxo-6,7-dihydro-1H-pyrrolo[2,3-c]pyridin-4-yl)-1H-benzo[d]imidazol-4-yl)ethanesulfonamide]
27 | < 100 | < 100 |  |  | CCS(=O)(=O)Nc1cc(-c2cn(C)c(=O)c3[nH]ccc23)cc2c1nc(C)n2Cc1ccc(C(F)(F)F)c(F)c1 [Example 51, N-(2-methyl-6-(6-methyl-7-oxo-6,7-dihydro-1H-pyrrolo[2,3-c]pyridin-4-yl)-1-(3-fluoro-4-(trifluoromethyl)benzyl)-1H-benzo[d]imidazol-4-yl)ethanesulfonamide]
